Measured values as given in US10548897B2, “KSR antagonists” (Icahn School of Medicine at Mount Sinai, priority 2015, dated 2020).

How the values were obtained:
[1] = biological target: KSR2 (purified hKSR2-rMEK1 complex) (Homo sapiens (Human), UniProt Q6VAB6); experiment: ATP-biotin probe labeling and inhibitor competition (KSR2 band); type: binding; settings: ATPbiotin probe labeling competition; 0.1 μM KSR2:MEK1; 27 nM to 20 μM compound; triplicate; read-out: KSR2 IC50
Description: Human KSR2 (residues 634-950) and rabbit MEK1 (residues 1 to 393) were codon optimized for insect cell expression by DNA 2.0. Inserts were expressed with TEV cleavable 6×-His tags from the pFastBac Dual expression vector. Bacmids were used to transfect adherent SF21 cells and viruses were subsequently titred to high levels through serial infections of SF21 cells. […] Briefly, following infections, cells were harvested, lysed, and affinity purified using Co2+ sepharose resin (GoldBio). […] Dialysis retentate was diluted 3 fold and then applied to a Resourse S ion exchange column. […] One-to-one hKSR2-MEK1 complexes were captured in late fractions from an increasing salt gradient. Complexes were later applied to a 120 mL Superdex 200 gel filtration column and finally concentrated to approximately 10 mg/mL before flash freezing for biochemical assays.
The ATP-biotin assay was performed in buffer containing 25 mM Tris pH 7.5, 150 mM NaCl, 10 mM MgCl2, and 2% DMSO. […] In particular, hKSR2-rMEK1 was pre-incubated with 20 μM of the indicated compounds for 15 minutes. Then, ATP-biotin (Pierce Cat. #88310) was added to a final concentration of 2 μM. Reactions were incubated at room temperature for 5 minutes before being stopped by the addition of 6×SDS loading dye. […] Enhanced chemiluminescence signals corresponding to labeling on KSR2 and MEK1 were visualized and quantified using the Biodoc system (Biorad). Relative signals of Streptavidin HRP on bands corresponding to KSR2 and MEK1 in the presence of compounds relative to DMSO controls were used to determine ‘Percent Inhibition of ATP Probe Labeling’.
For the ATP^biotin labeling competition screen, samples were applied to a 4-20% Tris-HCl gel, separated, and then transferred to a nitrocellulose membrane. The membrane was blocked with 5% bovine serum albumin diluted in TBS-T for 30 minutes and subsequently probed with the Pierce™ High Sensitivity Streptavidin-HRP. After several washes, the membranes were visualized using enhanced chemiluminescence on a Biodoc (Biorad).

KSR2:B-RAF^F667E dimers = KSR2:B-RAF^F667E dimers (Homo sapiens, UniProt Q6VAB6); experiment: Biolayer inferometry of KSR2:B-RAF dimerization (Octet Red96); type: binding; settings: compound at 25 μM
Procedure: B-RAF and B-RAF mutants (F667E+/−R509H) were immobilized on sensor-heads and KSR2:MEK1 or MEK1 assembly was monitored. Curves indicate dose ranges of KSR2:MEK1 or MEK1 from 625 nM to 10 μM. In all plots, association occurred from 0 to 660 seconds, and dissociation was monitored thereafter up to 1500 seconds. Compound 21 and trametinib were added in the presence of KSR2:MEK1 at a concentration of 25 μM each.
To directly investigate the impact of Compound 21 on KSR2:B-RAF dimerization, bio-layer inferometry (BLI) was utilized to monitor real-time association and dissociation of KSR2:MEK1 or free MEK1 to a sensor tethered with immobilized B-RAF.
To specifically monitor KSR2:B-RAF dimerization relative to other possible interactions, a mutation in B-RAF^F667E was identified that eliminates binding to free MEK but not KSR2-MEK1 complexes, as shown in FIGS. 7C-7D. […]
Interactions between purified B-RAF and the KSR2:MEK1 complex were measured using biolayer inferometry on the Octet Red96 system (Forte Bio). […] Association and dissociation was monitored over 660 and 840 seconds, respectively. Data sets were normalized and analysed using global fit binding models (Fortebio software). […]

[2] = biological target: KSR2:MEK1 phosphorylation by B-RAF (Homo sapiens (Human), UniProt Q6VAB6); experiment: RAF phosphorylation assay, KSR2:MEK1 substrate; type: biochemical; settings: 10 μM compound, 100 μM ATP, pMEK Ser218/Ser222
Chain of KSR2:MEK1 phosphorylation by B-RAF (Q6VAB6 634-950): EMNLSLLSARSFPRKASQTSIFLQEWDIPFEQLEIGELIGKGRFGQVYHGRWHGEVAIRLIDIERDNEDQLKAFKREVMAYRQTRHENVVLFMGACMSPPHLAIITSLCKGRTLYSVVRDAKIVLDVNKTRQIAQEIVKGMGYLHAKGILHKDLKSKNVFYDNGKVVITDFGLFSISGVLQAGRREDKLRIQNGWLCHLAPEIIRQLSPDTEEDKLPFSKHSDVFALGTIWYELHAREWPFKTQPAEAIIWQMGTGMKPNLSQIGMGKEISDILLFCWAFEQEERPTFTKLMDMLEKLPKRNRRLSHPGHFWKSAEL
Chain of KSR2:MEK1 phosphorylation by B-RAF (P29678 whole entry partner): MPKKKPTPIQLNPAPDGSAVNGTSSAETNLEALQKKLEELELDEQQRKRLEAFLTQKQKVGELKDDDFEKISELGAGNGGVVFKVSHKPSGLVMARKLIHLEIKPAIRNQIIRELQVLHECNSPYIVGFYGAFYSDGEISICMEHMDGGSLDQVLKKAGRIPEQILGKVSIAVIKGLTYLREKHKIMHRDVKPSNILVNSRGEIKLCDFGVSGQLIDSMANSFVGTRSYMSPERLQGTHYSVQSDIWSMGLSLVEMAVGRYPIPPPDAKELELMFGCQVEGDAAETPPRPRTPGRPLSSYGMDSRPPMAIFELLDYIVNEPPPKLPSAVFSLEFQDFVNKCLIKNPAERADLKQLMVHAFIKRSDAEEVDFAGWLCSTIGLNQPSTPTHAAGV
Procedure: (§1) FIGS. 9A-9C show phosphorylation of MEK1, KSR2:MEK1, and KSR2^A690F:MEK1 by B-RAF over time in the presence of Compound 21. Relative pMEK was determined by quantification of band intensities from western blots using Image Lab Software 4.1.
(§2) In particular, a variant of B-RAF was identified that could be expressed in high yield from E. Coli and which also retained near wild-type levels of kinase activity towards MEK1. For in vitro kinase assays, indicated concentrations of B-RAF and 1 μM KSR2-MEK1 or 1 μM MEK1 proteins were pre-incubated with 10 μM of indicated compounds for 15 minutes in buffer containing 25 mM Tris pH 7.5, 150 mM NaCl, 10 mM MgCl2, and 2% DMSO. Kinase reactions were initiated by the addition of 100 μM ATP and halted at the indicated times by the addition of 6×SDS loading dye. Samples were examined by western blotting as described for the ATP-biotin experiments and by probing overnight with a MEK1/2 Ser218-Ser222 phospho-specific antibody (Cell signaling). Membranes were visualized using enhanced chemiluminescence on a Biodoc (Biorad) for quantification purposes.

[3] = test system: MEK1 phosphorylation by B-RAF; experiment: RAF phosphorylation assay, MEK1 alone (KSR absent); type: biochemical; settings: 10 μM compound, free MEK1
Procedure: as §1, §2

RAF = experiment: Inhibitory activity against purified RAF; type: biochemical
MEK = experiment: Inhibitory activity against purified MEK; type: biochemical
ERK = experiment: Inhibitory activity against purified ERK; type: biochemical
[4] = test system: MAPK pathway readouts (pERK, pMEK, pRSK) in A375 and HCT-116; experiment: Western blot of MAPK pathway readouts, treatment with trametinib combinations; type: cell-based
A549 = experiment: Cell viability, combination with trametinib, A549; type: cell-based; settings: A549 (Ras-mutant)
Procedure: High BLISS scores indicate statistically significant synergy between Compound 21 and trametinib specifically within K-Ras mutant cells. Numbers listed within synergy matrices, representing % growth inhibition relative to DMSO controls, are mean of two replicates. Insets highlight dose responses of trametinib in the absence or presence of 1 μM Compound 21.
The viability ratio represented the viability observed for treated (inhibitors) relative to controls (DMSO).

Chain of KSR2 (purified hKSR2-rMEK1 complex) (Q6VAB6 634-950): as the sequence (Q6VAB6 634-950) above
Chain of KSR2 (purified hKSR2-rMEK1 complex) (P29678 whole entry partner, the tested form may be a part): as the sequence (P29678 whole entry partner) above

## COc1cc2ncnc(Nc3ccc(Oc4ccccc4)cc3C)c2cc1OC [Compound 21, 6,7-Dimethoxy-N-(2-methyl-4-phenoxyphenyl)quinazolin-4-amine 2,2,2-trifluoroacetate]
[1]
  IC50: 0.12 ± 0.023 µM
KSR2:B-RAF^F667E dimers
  association of KSR2:MEK1 with immobilized B-RAF^F667E: did not associate
[2]
  KSR-stimulated MEK phosphorylation by RAF: significantly reduced
[3]
  MEK phosphorylation by RAF, KSR absent: essentially inactive
RAF
  inhibitory activity against purified RAF: lacked detectable inhibitory activity
MEK
  inhibitory activity against purified MEK: lacked detectable inhibitory activity
ERK
  inhibitory activity against purified ERK: lacked detectable inhibitory activity
[4]; alone, compared with Compound 21 + trametinib co-treatment
  MAPK pathway inhibition (pERK, pMEK, pRSK), single agent: did not display the same pathway inhibition
[4]; combined with trametinib, A375 and HCT-116
  MAPK pathway inhibition (pERK, pMEK, pRSK) in combination with trametinib: reduction in MAPK pathway readouts
A549
  shift of cell viability dose response to trametinib: shifted the cell viability dose response to trametinib
